Experimental data published in US20040072205A1, “Methods for treating neuronal disorders” (priority 2002, published 2004).

Tests used:
[1] = test system: hSOD1^G93A transgenic ALS mice; assay: Minocycline treatment of ALS mice: Rotarod onset and mortality; type: in vivo, mouse
Method: We tested the effectiveness of minocycline on a mouse model of ALS and investigated its mechanism of neuroprotection. […] We evaluated the effect of minocycline on one of the ALS mouse models expressing the mutant human SOD1^G93A transgene. Minocycline (10 mg/kg body weight/day) was injected beginning at five weeks of age. Mutant hSOD1^G93A transgenic mice were evaluated weekly on a Rotarod to follow disease progression.
Minocycline administration started at six weeks of age at a slightly higher dose (11 mg/kg body weight/day).
ALS mice (Jackson Laboratories, Bar Harbor, Me.) were injected intraperitoneally daily with saline or minocycline (Sigma, St. Louis, Mo.). Strength and coordination were evaluated weekly by Rotarod (Columbus Instruments, Columbus, Ohio). Disease onset was defined as the first day a mouse could not remain on the Rotarod for 10 min at 15 rpm. Mortality was scored as age of death or age when the mouse was unable to right itself within 30 seconds (Li et al., supra).

[2] = test system: human patients with ALS; details: cited from earlier work

Structure (SMILES) | Onset of impaired motor performance (Rotarod), age ([1]; 10 mg/kg body weight/day i.p. from five weeks of age, saline 90.3±2.2 days, P<0.001) [days] | Survival, age ([1]; 10 mg/kg body weight/day i.p. from five weeks of age, saline 125.6±3.4 days, P<0.01) [days] | Mortality, age ([1]; modified protocol: 11 mg/kg body weight/day from six weeks of age, n=8/group, saline 126.3±2.7 days, P<0.05) [days] | side effects [2]
CN(C)c1ccc(O)c2c1C[C@H]1C[C@H]3[C@H](N(C)C)C(O)=C(C(N)=O)C(=O)[C@@]3(O)C(O)=C1C2=O [Minocycline] | 109.0 ± 1.5 | 136.8 ± 1.2 | 139.0 ± 2.1 | –
Nc1nc2ccc(OC(F)(F)F)cc2s1 [riluzole] | – | – | – | causes liver damage
